Here are results for eleven compounds from PubChem BioAssay AID2060495 (Molecular Pharmacology Branch, DTP, NCI, 2025).

This assay concerns 521955-158-R2-J5-PDC complex spheroid viability. Briefly: Anticancer human tumor 521955-158-R2-J5-PDC patient-derived pancreatic carcinoma cell line growth inhibition [GQUAD]. The settings on record: for viability, T/C: stronger effect = lower value. A digest of the protocol:
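Multi-cell-type spheroids of tumor cells with HUVEC and mesenchymal stem cells, treated with drug combinations. Concentrations descend in half-log steps from near clinical Cmax, or from 10 microM where Cmax is unknown; viability read-out.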

Setting [1] is: curve of first compound, second compound 0.0316 µM.
Setting [2] is: curve of first compound, second compound 0.1 µM.
The mark [3] stands for this setting: curve of first compound, second compound 0.316 µM.
Where [4] appears, read: curve of first compound, second compound 1 µM.
Where [5] appears, read: curve of first compound, second compound 3.16 µM.
Where [6] appears, read: curve of first compound, second compound 10 µM.
Setting [7] is: second compound 0.0316 µM, first compound 0.0316 µM.
Where [8] appears, read: second compound 0.0316 µM, first compound 0.1 µM.
Setting [9] is: second compound 0.0316 µM, first compound 0.316 µM.
The mark [10] stands for this setting: second compound 0.0316 µM, first compound 1 µM.
The mark [11] stands for this setting: second compound 0.0316 µM, first compound 3.16 µM.
[12] abbreviates: second compound 0.0316 µM, first compound 10 µM.
The mark [13] stands for this setting: second compound 0.1 µM, first compound 0.0316 µM.
The mark [14] stands for this setting: second compound 0.1 µM, first compound 0.1 µM.
Where [15] appears, read: second compound 0.1 µM, first compound 0.316 µM.
The mark [16] stands for this setting: second compound 0.1 µM, first compound 1 µM.
The mark [17] stands for this setting: second compound 0.1 µM, first compound 3.16 µM.
Where [18] appears, read: second compound 0.1 µM, first compound 10 µM.
Where [19] appears, read: second compound 0.316 µM, first compound 0.0316 µM.
[20] abbreviates: second compound 0.316 µM, first compound 0.1 µM.
The mark [21] stands for this setting: second compound 0.316 µM, first compound 0.316 µM.
[22] abbreviates: second compound 0.316 µM, first compound 1 µM.
[23] abbreviates: second compound 0.316 µM, first compound 3.16 µM.
Setting [24] is: second compound 0.316 µM, first compound 10 µM.
Setting [25] is: second compound 1 µM, first compound 0.0316 µM.
Where [26] appears, read: second compound 1 µM, first compound 0.1 µM.
Setting [27] is: second compound 1 µM, first compound 0.316 µM.
Setting [28] is: second compound 1 µM, first compound 1 µM.
Setting [29] is: second compound 1 µM, first compound 3.16 µM.
Setting [30] is: second compound 1 µM, first compound 10 µM.
[31] abbreviates: second compound 3.16 µM, first compound 0.0316 µM.
The mark [32] stands for this setting: second compound 3.16 µM, first compound 0.1 µM.
[33] abbreviates: second compound 3.16 µM, first compound 0.316 µM.
[34] abbreviates: second compound 3.16 µM, first compound 1 µM.
Where [35] appears, read: second compound 3.16 µM, first compound 3.16 µM.
The mark [36] stands for this setting: second compound 3.16 µM, first compound 10 µM.
The mark [37] stands for this setting: second compound 10 µM, first compound 0.0316 µM.
Where [38] appears, read: second compound 10 µM, first compound 0.1 µM.
[39] abbreviates: second compound 10 µM, first compound 0.316 µM.
Where [40] appears, read: second compound 10 µM, first compound 1 µM.
Where [41] appears, read: second compound 10 µM, first compound 3.16 µM.
Where [42] appears, read: second compound 10 µM, first compound 10 µM.

Each structure is given as a SMILES string. Values joined by “and” are separate entries in the source; they are usually repeats but may differ in a detail not shown here. Equal values may be shown once.
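Further: spheroids exposed to agents for one week before reading.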
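Wherever viability, T/C is given: 100% = DMSO vehicle control viability.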

Turning to `CCc1c2c(nc3ccc(O)cc13)-c1cc3c(c(=O)n1C2)COC(=O)[C@]3(O)CC`, the viability, T/C (in general, the ratio of treated to control) runs as follows: (compound 0.000999 µM) 71% and 85.3% and 74.8%; (compound 0.00316 µM) 12.1% and 39.8% and 21.3%; (compound 0.00999 µM) 7.66% and 28.1% and 9.19%; (compound 0.0316 µM) 6.38% and 17.9% and 8.13%; (compound 0.0999 µM) 5.13% and 11.7% and 5.42%; (compound 0.316 µM) 3% and 10.7% and 2.39%. Moreover, for the setting “curve of compound”, the IC50 (in general, the concentration that gives 50% inhibition) was 1.51 nM and 2.59 nM and 1.71 nM.

As to `O=C(NO)c1cnc(N2CCN(S(=O)(=O)c3ccc4ccccc4c3)CC2)nc1` + Cc1[nH]c2ccc(F)cc2c1-c1nc2c3cccnc3c3ncccc3c2[nH]1, the IC50 amounted to 758 nM under setting [1]; 966 nM under setting [2]; 1430 nM under setting [3]; 1380 nM under setting [4]; 1490 nM under setting [5]; 1760 nM under setting [6]. In addition, the viability, T/C by setting is: under setting [7], 115%; under setting [8], 124%; under setting [9], 84.3%; under setting [10], 41.8%; under setting [11], 0.18%; under setting [12], 0.17%. The viability, T/C by setting is: under setting [13], 99.1%; under setting [14], 142%; under setting [15], 111%; under setting [16], 48.5%; under setting [17], 0.18%; under setting [18], 0.23%. The viability, T/C runs as follows: under setting [19], 100%; under setting [20], 137%; under setting [21], 113%; under setting [22], 72.3%; under setting [23], 0.17%; under setting [24], 0.17%. For the same compound, the viability, T/C under setting [25] is 101%; the viability, T/C under setting [26] was 132%; the viability, T/C under setting [27] was 120%; the viability, T/C under setting [28] is 69.3%; the viability, T/C under setting [29] was 0.29%; the viability, T/C under setting [30] is 0.13%. In addition, the viability, T/C runs as follows: under setting [31], 96.8%; under setting [32], 123%; under setting [33], 105%; under setting [34], 75.9%; under setting [35], 0.29%; under setting [36], 0.48%. Also, the viability, T/C was 99.1% under setting [37]; 106% under setting [38]; 101% under setting [39]; 97.8% under setting [40]; 0.55% under setting [41]; 0.36% under setting [42].

Take `CC1COCCN1c1cc(-c2ccnn2C)c2ccnc(-c3ccn[nH]3)c2n1` (configuration not stated): the viability, T/C runs as follows: (compound 0.0316 µM) 86% and 82.9% and 82.7%; (compound 0.1 µM) 13.9% and 30.4% and 13.4%; (compound 0.316 µM) 10.9% and 17.4% and 9.83%; (compound 1 µM) 13.5% and 21.3% and 12.2%; (compound 3.16 µM) 16.9% and 33.8% and 15.8%; (compound 10 µM) 19.7% and 38.7% and 26.2%. Besides, the IC50 (curve of compound) was 56.7 nM and 64.6 nM and 55.3 nM.

Consider `O=C(c1cc(Cc2n[nH]c(=O)c3ccccc23)ccc1F)N1CCN(C(=O)C2CC2)CC1`, for which the viability, T/C was 96.2% and 106% and 90.6% (compound 0.0316 µM); 93.6% and 88.4% and 70.8% (compound 0.1 µM); 85.3% and 86.5% and 89.5% (compound 0.316 µM); 65.6% and 88% and 66.8% (compound 1 µM); 89.8% and 92.1% and 83.6% (compound 3.16 µM); 91.2% and 81.6% and 80.2% (compound 10 µM). The IC50 (curve of compound) is greater than 10000 nM.

With `Cc1cccc(N(C)C(=O)C2C(O)CCN2c2nc(C)cc(C(F)(F)F)c2C#N)c1` (configuration not stated), the viability, T/C reads like this: (compound 0.0316 µM) 120% and 113% and 96.8%; (compound 0.1 µM) 86.4% and 98.3% and 105%; (compound 0.316 µM) 90% and 104% and 107%; (compound 1 µM) 98.8% and 98.2% and 100%; (compound 3.16 µM) 120% and 115% and 123%; (compound 10 µM) 118% and 110% and 140%. In addition, the IC50 (curve of compound) was greater than 10000 nM.

For `COc1cc(C2c3cc4c(cc3C(OC3OC5COC(C)OC5C(O)C3O)C3COC(=O)C23)OCO4)cc(OC)c1O` (configuration not stated), the viability, T/C (compound 0.0316 µM) was 95.5% and 105% and 91.1%; the viability, T/C (compound 0.1 µM) is 66.3% and 70.6% and 95%; the viability, T/C (compound 0.316 µM) was 79.4% and 67% and 81.2%; the viability, T/C (compound 1 µM) was 29% and 29.6% and 53.9%; the viability, T/C (compound 3.16 µM) was 14.7% and 15.7% and 30.7%; the viability, T/C (compound 10 µM) is 10.9% and 9.42% and 17.9%. For the setting “curve of compound”, the IC50 is 616 nM and 427 nM and 1250 nM.

Turning to `COc1cc(C2c3cc4c(cc3C(OC3OC5COC(C)OC5C(O)C3O)C3COC(=O)C23)OCO4)cc(OC)c1O` (configuration not stated) + CN(C)c1ccc(Nc2c3ccc(NC(=O)CCN4CCCC4)cc3nc3cc(NC(=O)CCN4CCCC4)ccc23)cc1, the IC50 under setting [1] amounted to 771 nM; the half-inhibitory concentration (IC50) under setting [2] was found to be 808 nM; the IC50 under setting [3] amounted to 689 nM; the IC50 under setting [4] is 650 nM; the IC50 under setting [5] worked out at 551 nM; the IC50 under setting [6] turned out to be 594 nM. The viability, T/C runs as follows: under setting [7], 109%; under setting [8], 89.3%; under setting [9], 65%; under setting [10], 45.1%; under setting [11], 30.1%; under setting [12], 17.1%. Moreover, the viability, T/C reads like this: under setting [13], 82.9%; under setting [14], 104%; under setting [15], 76.5%; under setting [16], 43.1%; under setting [17], 32.5%; under setting [18], 20.1%. In addition, the viability, T/C reads like this: under setting [19], 94.2%; under setting [20], 85.3%; under setting [21], 69.5%; under setting [22], 40.1%; under setting [23], 25.6%; under setting [24], 18.2%. For the same compound, the viability, T/C under setting [25] is 89.5%; the viability, T/C under setting [26] was 93.5%; the viability, T/C under setting [27] was 55.8%; the viability, T/C under setting [28] was 45.8%; the viability, T/C under setting [29] was 28%; the viability, T/C under setting [30] was 19.2%. Also, the viability, T/C was 97.5% under setting [31]; 78.9% under setting [32]; 61.4% under setting [33]; 39% under setting [34]; 26% under setting [35]; 19.9% under setting [36]. For the same compound, the viability, T/C by setting is: under setting [37], 79.1%; under setting [38], 71%; under setting [39], 55.2%; under setting [40], 43%; under setting [41], 36.1%; under setting [42], 23.3%.

Turning to `CC[C@@]1(O)C(=O)OCc2c1cc1n(c2=O)Cc2cc3c(CN(C)C)c(O)ccc3nc2-1`, the viability, T/C is 109% and 110% and 79.9% (compound 0.000999 µM); 84.8% and 101% and 96.6% (compound 0.00316 µM); 96.3% and 112% and 92.2% (compound 0.00999 µM); 86.6% and 79.7% and 91.3% (compound 0.0316 µM); 30.5% and 50.2% and 38% (compound 0.0999 µM); 8.07% and 27.5% and 13.2% (compound 0.316 µM). The IC50 (curve of compound) was 66.9 nM and 93.2 nM and 76.6 nM.

With `CC1COCCN1c1cc(C2(O)CC3CCC(C2)O3)c2cnn(-c3ccn[nH]3)c2n1` (configuration not stated), the viability, T/C runs as follows: (compound 0.0316 µM) 32.7% and 40.2% and 58%; (compound 0.1 µM) 11% and 10.8% and 17.1%; (compound 0.316 µM) 11.7% and 12.3% and 23.7%; (compound 1 µM) 15.8% and 17.1% and 31.5%; (compound 3.16 µM) 19.6% and 19% and 32.1%; (compound 10 µM) 6.3% and 8.53% and 21.2%. In addition, the IC50 (curve of compound) is < 31.6 nM and 41.8 nM.

For the compound `COc1cccc2c1C(=O)c1c(O)c3c(c(O)c1C2=O)CC(O)(C(=O)CO)CC3OC1CC(N)C(O)C(C)O1` (configuration not stated), the viability, T/C by setting is: (compound 0.0316 µM) 97.9% and 93.8% and 88.4%; (compound 0.1 µM) 57.4% and 74.5% and 45%; (compound 0.316 µM) 34.3% and 31.6% and 30.2%; (compound 1 µM) 13.4% and 43% and 12.5%; (compound 3.16 µM) 4.07% and 4.69% and 3.22%; (compound 10 µM) 1.01% and 2.64% and 0.42%. Also, the IC50 (curve of compound) is 145 nM and 254 nM and 96.7 nM.

With `C=CCn1c(=O)c2cnc(Nc3ccc(N4CCN(C)CC4)cc3)nc2n1-c1cccc(C(C)(C)O)n1`, the viability, T/C is, setting by setting: (compound 0.0316 µM) 101% and 115% and 102%; (compound 0.1 µM) 70.8% and 67% and 66.1%; (compound 0.316 µM) 30.4% and 29.3% and 16%; (compound 1 µM) 17.9% and 15.7% and 7.78%; (compound 3.16 µM) 12.2% and 13.9% and 7.48%; (compound 10 µM) 16.8% and 14.4% and 6.61%. Where the note is “curve of compound”, the IC50 was 181 nM and 167 nM and 145 nM.
